SMILES strings stand for the structures. pKi: −log10 of the molar value.

For one assay, the target named is T1, human M4 receptor (Homo sapiens, UniProt P08173).
T1 construct: expressed in transfected cells; host or cells: CHO cells
T1 sequence (P08173 1-479): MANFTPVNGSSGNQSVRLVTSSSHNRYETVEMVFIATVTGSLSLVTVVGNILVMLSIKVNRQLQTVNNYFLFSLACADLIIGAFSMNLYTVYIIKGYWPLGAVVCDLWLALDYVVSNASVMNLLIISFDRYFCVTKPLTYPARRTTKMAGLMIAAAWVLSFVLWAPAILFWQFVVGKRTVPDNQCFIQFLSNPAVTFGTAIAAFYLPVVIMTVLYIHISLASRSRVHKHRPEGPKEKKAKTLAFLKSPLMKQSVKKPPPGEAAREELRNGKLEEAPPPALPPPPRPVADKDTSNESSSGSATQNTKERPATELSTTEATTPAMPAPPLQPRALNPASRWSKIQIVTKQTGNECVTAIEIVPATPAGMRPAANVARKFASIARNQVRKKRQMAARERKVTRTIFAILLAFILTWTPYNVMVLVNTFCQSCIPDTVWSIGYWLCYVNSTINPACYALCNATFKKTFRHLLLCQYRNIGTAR
Briefly: Radioligand ([3H]N-methylscopolamine) binding assay, membranes from CHO cells expressing human M4 receptor.
Settings: not given
An outline of the steps: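 Ki values derive from displacement of tritiated N-methylscopolamine (1.5 nM) from human M4 receptor in CHO membranes. Membranes, radioligand and twelve-point compound series were incubated together at 37 °C for 90 minutes in pH 7.4 HEPES/NaCl/MgCl2/EDTA buffer. Rapid vacuum filtration over polyethylenimine-pretreated filters was followed by radioactivity counting.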
`O=C(OC1CC2(C1)CN(Cc1ccccc1)C2)N1C2COCC1CN(c1cnc(C(F)(F)F)cn1)C2` [Compound 168, 2-benzyl-2-azaspiro[3.3]heptan-6-yl 7-[5-(trifluoromethyl)pyrazin-2-yl]-3-oxa-7,9-diazabicyclo[3.3.1]nonane-9-carboxylate] had a pKi of 6.00 to 7.00.

The assay is the same for the next values; noted with them: Ki against human M4 receptor; membranes from CHO cells; tritiated N-methylscopolamine 1.5 nM; read-out: K.
With `C[C@@H]1CN(c2nc3cc(F)ccc3s2)C[C@@H](C)N1C(=O)OC1CC2(C1)CN(Cc1ccccc1)C2` [Compound 439, 2-benzyl-2-azaspiro[3.3]heptan-6-yl (2R,6R)-4-(5-fluoro-1,3-benzothiazol-2-yl)-2,6-dimethylpiperazine-1-carboxylate], the pKi was 7.00 to 8.00.

With `C[C@@H]1CN(c2cnc3ccccc3n2)[C@@H](C)CN1C(=O)OC1CC2(C1)CN(Cc1ccc(F)cc1)C2` [Compound 394, 2-[(4-fluorophenyl)methyl]-2-azaspiro[3.3]heptan-6-yl (2R,5S)-2,5-dimethyl-4-(quinoxalin-2-yl)piperazine-1-carboxylate], the pKi is 7.00 to 8.00.

As for `C[C@@H]1CN(c2ccc([N+](=O)[O-])cn2)C[C@H](C)N1C(=O)OC1CC2(C1)CN(Cc1ccccc1)C2` [Compound 163, 2-benzyl-2-azaspiro[3.3]heptan-6-yl (2R,6S)-2,6-dimethyl-4-(5-nitropyridin-2-yl)piperazine-1-carboxylate], the pKi was 7.00 to 8.00.

For `C[C@@H]1CN(c2ncc(C(F)(F)F)cn2)[C@@H](C)CN1C(=O)OC1CC2(C1)CN(Cc1ccc(Cl)cc1)C2` [Compound 482, 2-[(4-chlorophenyl)methyl]-2-azaspiro[3.3]heptan-6-yl (2R,5S)-2,5-dimethyl-4-[5-(trifluoromethyl)pyrimidin-2-yl]piperazine-1-carboxylate], the pKi was over 8.00.

As for `C[C@@H]1CN(c2cnc(C(F)(F)F)cn2)C[C@@H](C)N1C(=O)NC1CC2(C1)CN(Cc1ccccc1)C2` [Compound 64, (2R,6R)-N-{2-benzyl-2-azaspiro[3.3]heptan-6-yl}-2,6-dimethyl-4-[5-(trifluoromethyl)pyrazin-2-yl]piperazine-1-carboxamide], the pKi was 6.00 to 7.00.

With `CCCc1cnc(N2C[C@@H](C)N(C(=O)OC3CC4(C3)CN(Cc3ccccc3)C4)[C@@H](C)C2)nc1` [Compound 504, 2-benzyl-2-azaspiro[3.3]heptan-6-yl (2R,6S)-2,6-dimethyl-4-(5-propylpyrimidin-2-yl)piperazine-1-carboxylate], the pKi is over 8.00.

For `C[C@@H]1CN(c2ncc(C(F)(F)F)cn2)C[C@@H](C)N1C(=O)OCC1CC2(C1)CN(Cc1ccccc1)C2` [Compound 144, {2-benzyl-2-azaspiro[3.3]heptan-6-yl}methyl (2R,6R)-2,6-dimethyl-4-[5-(trifluoromethyl)pyrimidin-2-yl]piperazine-1-carboxylate], the pKi was 7.00 to 8.00.

As for `C[C@@H]1CN(c2nc3ccc(F)cc3s2)C[C@H](C)N1C(=O)OC1CC2(C1)CN(Cc1ccccc1)C2` [Compound 368, 2-benzyl-2-azaspiro[3.3]heptan-6-yl (2R,6S)-4-(6-fluoro-1,3-benzothiazol-2-yl)-2,6-dimethylpiperazine-1-carboxylate], the pKi is over 8.00.

Turning to `C[C@@H]1CN(c2ncc(C#N)cn2)C[C@H](C)N1C(=O)NC1CC2(C1)CN(Cc1ccc(F)cc1)C2` [Compound 330, (2R,6S)-4-(5-cyanopyrimidin-2-yl)-N-{2-[(4-fluorophenyl)methyl]-2-azaspiro[3.3]heptan-6-yl}-2,6-dimethylpiperazine-1-carboxamide], the pKi was 6.00 to 7.00.

Consider `[2H]c1c([2H])c([2H])c(CN2CC3(CC(NC(=O)N4[C@H](C)CN(c5ncc(C(F)(F)F)cn5)C[C@@H]4C)C3)C2)c([2H])c1[2H]` [Compound 273, (2R,6S)-N-{2-[(^2H5)benzyl]-2-azaspiro[3.3]heptan-6-yl}-2,6-dimethyl-4-[5-(trifluoromethyl)pyrimidin-2-yl]piperazine-1-carboxamide], for which the pKi was over 8.00.

As for `CNC(=O)c1cnc(N2C[C@@H](C)N(C(=O)OC3CC4(C3)CN(Cc3ccccc3)C4)[C@@H](C)C2)nc1` [Compound 471, 2-benzyl-2-azaspiro[3.3]heptan-6-yl (2R,6S)-2,6-dimethyl-4-[5-(methylcarbamoyl)pyrimidin-2-yl]piperazine-1-carboxylate], the pKi was 6.00 to 7.00.

Consider `O=C(OC1CC2(C1)CN(Cc1ccccc1)C2)N1CCN(c2cc(F)c(F)c(F)c2)CC1` [Compound 105, 2-benzyl-2-azaspiro[3.3]heptan-6-yl 4-(3,4,5-trifluorophenyl)piperazine-1-carboxylate], for which the pKi is 6.00 to 7.00.

On to `C[C@@H]1CN(c2nc3ccc(F)cc3s2)C[C@@H](C)N1C(=O)OC1CC2(C1)CN(Cc1ccc(C(N)=O)cc1)C2` [Compound 402, 2-[(4-carbamoylphenyl)methyl]-2-azaspiro[3.3]heptan-6-yl (2R,6R)-4-(6-fluoro-1,3-benzothiazol-2-yl)-2,6-dimethylpiperazine-1-carboxylate], for which the pKi was 7.00 to 8.00.

On to `C[C@@H]1CN(c2nc3ccc(F)cc3o2)C[C@H](C)N1C(=O)OC1CC2(C1)CN(Cc1ccccc1)C2` [Compound 444, 2-benzyl-2-azaspiro[3.3]heptan-6-yl (2R,6S)-4-(6-fluoro-1,3-benzoxazol-2-yl)-2,6-dimethylpiperazine-1-carboxylate], for which the pKi was 7.00 to 8.00.

On to `C[C@@H]1CN(c2nc3ccccc3s2)[C@@H](C)CN1C(=O)NC1CC2(C1)CN(Cc1ccccc1)C2` [Compound 244, (2R,5S)-4-(1,3-benzothiazol-2-yl)-N-{2-benzyl-2-azaspiro[3.3]heptan-6-yl}-2,5-dimethylpiperazine-1-carboxamide], for which the pKi was over 8.00.

With `C[C@@H]1CN(C(=O)NC2CC3(C2)CN(Cc2ccccc2)C3)[C@@H](C)CN1c1cnc(C(F)(F)F)cn1` [Compound 37, (2S,5R)-N-{2-benzyl-2-azaspiro[3.3]heptan-6-yl}-2,5-dimethyl-4-[5-(trifluoromethyl)pyrazin-2-yl)piperazine-1-carboxamide], the pKi is 7.00 to 8.00.

In the case of `C[C@@H]1CN(c2ncc(C(F)(F)F)cn2)[C@H](C)CN1C(=O)NC1CC2(C1)CN(Cc1ccccc1)C2` [Compound 38, (2R,5R)-N-{2-benzyl-2-azaspiro[3.3]heptan-6-yl}-2,5-dimethyl-4-[5-(trifluoromethyl)pyrimidin-2-yl]piperazine-1-carboxamide], the pKi is 7.00 to 8.00.

In the case of `C[C@@H]1CN(c2ncc(C(F)(F)F)cn2)C[C@H](C)N1C(=O)NC1CC2(C1)CN(Cc1ccc[nH]1)C2` [Compound 309, (2R,6S)-2,6-dimethyl-N-[2-(1H-pyrrol-2-ylmethyl)-2-azaspiro[3.3]heptan-6-yl]-4-[5-(trifluoromethyl)pyrimidin-2-yl]piperazine-1-carboxamide], the pKi was 7.00 to 8.00.

In the case of `C[C@@H]1CN(c2ncc(F)cn2)C[C@H](C)N1C(=O)NC1CC2(C1)CN(Cc1ccccc1)C2` [Compound 250, (2R,6S)-N-{2-benzyl-2-azaspiro[3.3]heptan-6-yl}-4-(5-fluoropyrimidin-2-yl)-2,6-dimethylpiperazine-1-carboxamide], the pKi was 6.00 to 7.00.

Turning to `C[C@@H]1CN(c2ncc(F)cn2)C[C@H](C)N1C(=O)OC1CC2(C1)CN(Cc1ccccc1)C2` [Compound 157, 2-benzyl-2-azaspiro[3.3]heptan-6-yl (2R,6S)-4-(5-fluoropyrimidin-2-yl)-2,6-dimethylpiperazine-1-carboxylate], the pKi was over 8.00.

The values above are taken from patent US20230129359A1, “MUSCARINIC RECEPTOR 4 ANTAGONISTS AND METHODS OF USE” (Neurocrine Biosciences, Inc., priority 2020, published 2023).
